Source: patent publication US20130047297A1, “POLYNUCLEOTIDE MOLECULES FOR GENE REGULATION IN PLANTS” (priority 2010, published 2013)

Tested on: Nicotiana benthamiana phytoene desaturase
Assay: Topical oligonucleotides/polynucleotides on tobacco, PDS bleaching and chlorophyll (Example 10)
Format: in vivo
Settings: for bleaching of apical leaves (FIG. 14): topical treatment; for Chlorophyll (day 12) / Chlorophyll (day 7): 6 spots on the apical area; for Chlorophyll (day 12): buffer control 38.4; for Chlorophyll (day 7): lower values indicate suppression of phytoene desaturase, buffer control 31.2; for Bleaching (day 5): 25 microM each; for systematically regulating (suppressing) the target gene phytoene desaturase: Table 4 treatments; for bleaching of apical leaves (FIG. 15): another assay
Procedure: The following procedure was used for all assays described in this example. Four-week old Nicotiana benthamiana plants were used in all assays. Plants were treated with 0.1% Silwet L-77 solution freshly made with ddH2O. Two fully expanded leaves per plant (one cotyledon, one true leaf) were dipped into the Silwet L-77 solution for a few seconds, and allowed to dry for 15-30 minutes before application of the polynucleotide composition. Final concentration for each oligonucleotide or polynucleotide was 25 microM (in 0.01% Silwet L-77, 5 mM sodium phosphate buffer, pH 6.8) unless otherwise stated. 20 microliters of the solution was applied to the top surface of each of the two pre-treated leaves to provide a total of 40 microliters (1 nmol oligonucleotide or polynucleotide) for each plant. Leaf bleaching was observed 3 days post treatment.
FIG. 13 illustrates phenotypes observed at day 12 after treatment in another assay of the effect from twelve combinations of polynucleotides or oligonucleotides (see Table 4). Table 4 also lists observations of visible bleaching of the plants at day 5 after treatment and the results of chlorophyll measurements taken at days 7 and 12 after treatment. Chlorophyll measurements are an indication of suppression of the target gene phytoene desaturase, and measurements were taken at 6 spots on the apical area, focussing on visibly bleached leaves or (in plants without visible bleaching) on leaves in equivalent locations on the plants; lower chlorophyll measurement values indicate suppression of phytoene desaturase.

## PDS 18-mer anti-sense ssDNA: SEQ ID NO:33 (antisense CATCTCCTTTAATTGTAC; DNA, backbone not given here)
  bleaching of apical leaves (FIG. 14): Little or no visible bleaching

## Oligo 3 without T7 promoter: SEQ ID NOs 22, 23; PDS anti-sense 22-mer oligonucleotides without a T7 promoter (antisense 1 CATCTCCTTTAATTGTACTGCC; antisense 2 TTTAATTGTACTGCCATTATTC; listed as DNA, chemistry not given here)
  Chlorophyll (day 12): 3.2
  Chlorophyll (day 7): 11.3
  systematically regulating (suppressing) the target gene phytoene desaturase: effective
  bleaching of apical leaves (FIG. 15): strong bleaching
  bleaching of apical leaves (FIG. 14): Strong bleaching
40 microliters per plant
  Bleaching (day 5): strong

## PDS 33-mer anti-sense ssDNA: SEQ ID NO:35 (antisense CATCTCCTTTAATTGTACTGCCATTATTCAGTA; DNA, backbone not given here)
  bleaching of apical leaves (FIG. 14): Strong bleaching

## Oligos 1 and 2 without T7 promoter: SEQ ID NOs 18, 19 (chain 1 GCAAGAGATGTCCTAGGTGGG; chain 2 ACAGATTTCTTCAGGAGAAACATGG; DNA, backbone not given here)
  Chlorophyll (day 12): 41.1
  Chlorophyll (day 7): 32.0
  systematically regulating (suppressing) the target gene phytoene desaturase: did not suppress
40 microliters per plant
  Bleaching (day 5): not yet

## PDS 15-mer anti-sense ssDNA: SEQ ID NO:32 (antisense CATCTCCTTTAATTG; DNA, backbone not given here)
  bleaching of apical leaves (FIG. 14): Little or no visible bleaching

## PDS 21-mer sense ssDNA: SEQ ID NO:36 (sense GCAGTACAATTAAAGGAGATG; DNA, backbone not given here)
  bleaching of apical leaves (FIG. 15): Little or no visible bleaching

B1: 200-mer dsRNA polynucleotide: dsRNA corresponding to nucleotides 914-1113 of SEQ ID NO:2 (nucleic acid, listed as Nicotiana benthamiana)
sense: ACAGATTTCTTCAGGAGAAACATGGTTCAAAAATGGCCTTTTTAGATGGTAACCCTCCTGAGAGACTTTGCATGCCGATTGTGGAACATATTGAGTCAAAAGGTGGCCAAGTCAGACTAAACTCACGAATAAAAAAGATCGAGCTGAATGAGGATGGAAGTGTCAAATGTTTTATACTGAATAATGGCAGTACAATTAAA
modifications: complementary strand
  Chlorophyll (day 12): 4.0
  Chlorophyll (day 7): 11.3
  systematically regulating (suppressing) the target gene phytoene desaturase: effective
40 microliters per plant
  Bleaching (day 5): strong
200-mer dsRNA at 0.6 microM, oligonucleotides 25 microM each, 40 microliters per plant
  bleaching of apical leaves (FIG. 12A): Bleaching of apical leaves was observed

B2: PDS 700-mer dsRNA: dsRNA designed from nucleotides 421-1120 of SEQ ID NO:2 (nucleic acid, listed as Nicotiana benthamiana)
DNA: GCAAGAGATGTCCTAGGTGGGAAGGTAGCTGCATGGAAAGATGATGATGGAGATTGGTACGAGACTGGGTTGCACATATTCTTTGGGGCTTACCCAAATATGCAGAACCTGTTTGGAGAACTAGGGATTGATGATCGGTTGCAGTGGAAGGAACATTCAATGATATTTGCGATGCCTAACAAGCCAGGGGAGTTCAGCCGCTTTGATTTTCCTGAAGCTCTTCCTGCGCCATTAAATGGAATTTTGGCCATACTAAAGAACAACGAAATGCTTACGTGGCCCGAGAAAGTCAAATTTGCTATTGGACTCTTGCCAGCAATGCTTGGAGGGCAATCTTATGTTGAAGCTCAAGACGGTTTAAGTGTTAAGGACTGGATGAGAAAGCAAGGTGTGCCTGATAGGGTGACAGATGAGGTGTTCATTGCCATGTCAAAGGCACTTAACTTCATAAACCCTGACGAGCTTTCGATGCAGTGCATTTTGATTGCTTTGAACAGATTTCTTCAGGAGAAACATGGTTCAAAAATGGCCTTTTTAGATGGTAACCCTCCTGAGAGACTTTGCATGCCGATTGTGGAACATATTGAGTCAAAAGGTGGCCAAGTCAGACTAAACTCACGAATAAAAAAGATCGAGCTGAATGAGGATGGAAGTGTCAAATGTTTTATACTGAATAATGGCAGTACAATTAAAGGAGATG
modifications: dsRNA of this region
  bleaching of apical leaves (FIG. 14): Strong bleaching
